Key:
[1] = test system: kinase/NanoLuc® (Nluc) fusion proteins; assay: NanoBRET relative BRET signal of kinase tracers against a panel of kinase/NanoLuc fusions in live cells; type: cell-based; settings: HEK293 cells, 2 hours, 0.5 uM CC-1804, CC-1852, or 1 uM CC-1294; compared to CC-1294
Procedure: (§1) FIG. 1A-B. Summary of the BRET results generated with kinase tracers against a large panel of kinase/NanoLuc® fusions expressed in live cells. Assay signals were assessed by taking the ratio of BRET in the presence of tracer/no tracer control. Assays are categorized as follows: >3-fold signal (green cells), 2-3 fold signal (yellow cells), and 1.5-2 fold signal (red cells).
as §1, with “1C-F. Individual BRET signals observed between” for “1A-B. Summary of”, “broad-spectrum” for “BRET results generated with”, “and individual” for “against a large panel of”
Experiments were conducted during development of embodiments herein to derive a comprehensive analysis of intracellular kinase target engagement using NanoBRET™ tracers derived from CC-1294 versus NanoBRET™ tracers derived from novel inhibitors. […] NanoBRET was measured on a Glomax® Discover plate reader. To determine relative BRET signals, BRET arising from the tracer was divided by BRET in the absence of tracer.

kinase/Nluc fusions [2] = assay: NanoBRET fractional occupancy by competitive displacement of NanoBRET tracers in living HEK293 cells; type: cell-based; settings: of the 200 kinases evaluated, 300 nM test compound, 2 hours, CC-1861 vs CTx (FIG. 5)
Procedure: Transfections were performed using 3:1 FuGENE HD:plasmid ratios.

kinase/Nluc fusions [3] = test system: kinase/Nluc fusions
Procedure: NanoBRET™ assays were run by competitive displacement of NanoBRET™ tracers in living HEK293 cells.
Values were measured by competitive displacement of NanoBRET™ tracers in living cells.
In wells of 96-well plates, 20,000 HEK293 cells per well were transfected with kinase/Nluc fusions expressed from pFN31K and pFN32K plasmids. Transfections were performed using 3:1 FuGENE HD:plasmid ratios. 24 hours post transfection, cells were treated for 2 hours in the presence of tracer and varying concentration of control inhibitor indicated. After incubation, NanoBRET™-TE substrate/inhibitor solution was added to a final concentration of 1×, and BRET was measured on a Glomax® Discover plate reader.

NC(=O)c1ccccc1Nc1nc(Nc2cccc(N3CCNCC3)c2)ncc1Cl [CC-1852]
target engagement/kinase profiling breadth (relative BRET signal, tracer / no tracer) [1]: unexpectedly broad spectrum target engagement/kinase profiling

CNC(=O)c1ccccc1Nc1nc(Nc2ccc(N3CCNCC3)cc2)ncc1Cl [CTx-0294885, 2-((5-chloro-2-((4-(piperazin-1-yl)phenyl)amino)pyrimidin-4-yl)amino)-N-methylbenzamide]
number of kinases that preferred the compound over the other (kinase/Nluc fusions [2]): 4

NC(=O)c1ccccc1Nc1nc(Nc2ccc(N3CCNCC3)cc2)ncc1Cl [CC-1861, 2-((5-chloro-2-((4-(piperazin-1-yl)phenyl)amino)pyrimidin-4-yl)amino)benzamide]
inhibitor potency compared to CTx (kinase/Nluc fusions [3]; HEK293 cells, 2 hours, tracer plus varying concentration of inhibitor (FIG. 7)): increased inhibitor potency
intracellular affinity compared to CTx-0294885 (kinase/Nluc fusions [3]; living HEK293 cells, four targets tested (FIG. 7)): stronger than CTx-0294885 for three of the four targets tested
